Values joined by “and” are separate entries in the source; they are usually repeats but may differ in a detail not shown here. Identical values can stand only once. Active and inactive are the calls of the source.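 How the source made its calls: active means compounds giving half or more protection of infected cells from virus-caused growth loss, again on retest; inactive means the rest.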

The test system of this assay is CEM cells HIV-1 protection, formazan growth assay. In words: NCI AIDS Antiviral Assay. The conditions noted are these: for IC50: measured here: growth of uninfected CEM cells. The method, boiled down:
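Five concentrations of each compound were applied to infected and uninfected human CEM cells. Protection from HIV-1 was judged from growth measured with a soluble formazan assay.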

In the case of `CCC1CC2CN3CCc4c([nH]c5c(-c6c(OC)ccc7c8c([nH]c67)[C@]6(C(=O)OC)CC7CC(CC)C6N(CC8)C7)c(O)ccc45)[C@](C(=O)OC)(C2)C13` (stereo not given in full), the EC50 was over 200 µM and the IC50 is 12.9 µM.

For the molecule `N.N.N.N.O=[N+]([O-])[O-].[Co+3].[N-]=[N+]=[N-].[N-]=[N+]=[N-]`, the outcome was inactive. For `CCCCCCCCCCCCCCCCCCNc1nc(=O)n(C2CC(O)C(COP(=O)(O)OCC3CCC(n4ccc(N)nc4=O)O3)O2)cc1F` (stereo not given), the EC50 was 1.51 µM and the IC50 stood at 2.04 µM. Take `CC1(C)CC(=O)C2=C(C1)C(c1ccccc1Cl)C1C(=O)CC(C)(C)CC1(O)O2` (stereo not given): the EC50 was over 200 µM and the IC50 is 28.8 µM. For the molecule `[N-]=[N+]=Nc1cc(=O)[nH]nc1-c1ccccc1`, the EC50 is over 200 µM and the IC50 is over 200 µM. For `Cn1c2ccccc2c(=NNc2ccc(S(N)(=O)=O)cc2)c2ccccc21`, the EC50 was over 200 µM and the IC50 came out at 17.4 µM. For `O=S(=O)(SCCCCSS(=O)(=O)c1ccc(Cl)cc1)c1ccc(Cl)cc1`, in that order: 8.13 µM and 9.55 µM. In the case of `O=C(NC1CCCCC1)/C(=C\c1ccc2c(c1)OCO2)NC(=O)c1ccccc1`, the EC50 is over 200 µM and the IC50 is over 200 µM. Take `O=NN(CCCl)C(=O)NCCCl`: the EC50 is over 1150 µM and the IC50 is over 1150 µM.

As for `COC(=O)/C1=C/C2CC(/C=C(/c3ccccc3)C(=O)O1)C2`, the outcome was inactive. With `COC(=O)c1ccccc1NC(=O)/C(=N\NC(C)(C)C)C(C#N)c1nc(-c2ccc([N+](=O)[O-])cc2)cs1` (stereo not given), the EC50 was over 69.2 µM and the 50% inhibitory concentration (IC50) is over 69.2 µM. For the molecule `ClC1=C(Cc2ccccc2)Cc2ccc3c(c21)CCC3`, the EC50 is over 200 µM and the IC50 was over 200 µM. Take `O=C1c2ccccc2CC12Cc1ccc3c(c1C2=O)CCCC3` (stereo not given): the EC50 was over 200 µM and the IC50 is over 200 µM. In turn, `CCNC(=O)Sc1ccccc1C(=O)NCCC(N)=O` displayed an EC50 of 1.1 µM and an IC50 of 102 µM. With `N=C1N=Nc2nc(C(C(=O)c3cccc4ccccc34)c3nc4n(c3O)C(=N)N=N4)c(O)n21` (stereo not given), the EC50 is over 200 µM and the IC50 stood at 117 µM. Regarding `O=C1CSC(c2ccccc2Cl)N1N1C(=O)CSC1c1ccccc1Cl` (stereo not given), the EC50 is over 200 µM and the IC50 stood at 18.2 µM. `Cc1c(C(=O)O)c2cc3ccccc3cc2c(=O)n1C`: the EC50 was over 200 µM and the IC50 is over 200 µM. `CC(O)CN1C(=O)c2cccc3cc([N+](=O)[O-])cc(c23)C1=O` (stereo not given): the EC50 is over 200 µM and the IC50 was 12 µM.

In the case of `COC1/C=C/OC2(C)Oc3c(C)c(O)c4c(c3C2=O)C(=O)C=C(NC(=O)/C(C)=C\C=C\C(C)C(OC=O)C(C)C(O)C(C)C(OC(C)=O)C1C)C4=O` (stereo not given), the EC50 is over 200 µM and the IC50 came to 7.41 µM. On to `Cc1c(-c2ccccc2)oc2c(C(=O)OCCN3CCCCC3)cccc2c1=O`, for which the outcome was inactive. With `CC1(c2ccccc2)CCN(C2CC2)CO1` (stereo not given), the EC50 is over 200 µM and the IC50 turned out to be 23.4 µM. `NCCCN1CCN(CC(=O)O)CCN(CCCN)CCN(CC(=O)O)CC1`: the EC50 was over 200 µM and the IC50 was 4.37 µM. In the case of `CC12CCC(C(S(=O)(=O)Nc3ccccc3)C1=O)C2(C)C` (stereo not given), the EC50 is over 200 µM and the IC50 was found to be 138 µM. On to `Cn1c(=O)c2[nH]cnc2n(CC(N)=O)c1=O`, for which the EC50 is over 562 µM and the IC50 was over 562 µM. On to `O=C1NC(=O)C(=Cc2ccc(-c3ccccc3)cc2)C(=O)N1`, for which the EC50 is over 24.5 µM and the IC50 was over 24.5 µM. Take `Cc1cc(Cl)c(O)c(-c2cc(-c3ccccc3O)c(C#N)c(N)n2)c1`: the EC50 is over 200 µM and the IC50 is 2.14 µM. For `O=c1[nH]c2cnn(-c3ccccc3)c2c(=O)n1O`, the EC50 is over 200 µM and the IC50 worked out at 21.4 µM. For `O=c1ccc2ccc3occc(=O)c3c2o1`, in that order: over 120 µM and 102 µM. Consider `OC1C(CBr)OC(OC[C@H](COCc2ccccc2)OCc2ccccc2)C(O)C1O` (stereo not given in full), for which the EC50 is over 214 µM and the IC50 is over 100 µM.

For the molecule `CC(=O)/C(=C/c1ccc(Br)cc1)C(=O)c1ccccc1`, the outcome was inactive. Turning to `O=C(/C=C/c1ccccc1Br)c1ccccc1`, the EC50 was over 200 µM and the IC50 came to 3.16 µM.

For `Cc1cccc(C2NC(=S)N3C(c4cccc(C)c4)NC(=S)N23)c1` (stereo not given), the result was inactive. Regarding `CCCNC1(C(N)=O)CCN(Cc2ccccc2)CC1`, the EC50 is over 200 µM and the IC50 is over 200 µM. Turning to `O/N=C1/C(=C/c2ccc3c(c2)OCO3)CCCC1C(NO)c1ccc2c(c1)OCO2` (stereo not given), the EC50 is over 12.6 µM and the IC50 was over 12.6 µM.

In the case of `N#CCCN(CCC#N)c1ccc(/C=C2/N=C(COc3ccccc3)N(c3ccc(Cl)cc3)C2=O)cc1`, the EC50 is over 37.2 µM and the IC50 was over 37.2 µM. Consider `COc1cc2c(c3c1C=CCO3)C(=O)c1ccccc1C2=O`, for which the result was inactive.

On to `COc1cc(OC)cc(Oc2nc3c(N)cc(C(F)(F)F)cc3nc2-c2ccccc2)c1`, for which the EC50 is over 200 µM and the IC50 was over 200 µM. For `CC1=NN(C(=O)c2ccc(Cl)cc2)C(=O)/C1=C/c1cccc([N+](=O)[O-])c1`, the EC50 was over 19.5 µM and the IC50 was over 19.5 µM.

For the molecule `OCc1c2c(cc3c1CC1(C3)Cc3cc4c(c(CO)c3C1)CCC4)CCC2`, the EC50 was over 200 µM and the IC50 worked out at 8.13 µM. Take `NC(N)=N/N=C(\c1nc2ccc([N+](=O)[O-])cc2[nH]c1=O)C(O)c1ccc([N+](=O)[O-])cc1` (stereo not given): the EC50 was over 158 µM and the IC50 is over 158 µM. For the molecule `CC(C)(C)OC(=O)[N+](=N)C(=O)C1CCC(=O)N1C(=O)OCc1ccccc1` (stereo not given), the EC50 was over 200 µM and the IC50 is over 200 µM.

Consider `OCC(O)C(OC1OC(CO)C(O)C(O)C1O)c1nn(-c2ccc(Cl)cc2)c2nc3cc(Cl)ccc3nc12` (stereo not given), for which the outcome was inactive. As to `CC(C)c1nc2c(Cl)c3ncccc3cc2[nH]c1=O`, the EC50 was over 100 µM and the IC50 was determined as 39.8 µM. As to `CC(=O)N1N=C(c2c(O)ccc3ccccc23)CC1c1ccc(Cl)cc1` (stereo not given), the EC50 was over 200 µM and the IC50 stood at 25.1 µM. Turning to `CC(NC(=O)C(NC(=O)C(NC(=O)C(F)(F)F)C(C)C)C(C)C)C(=O)Oc1c(Cl)c(Cl)c(Cl)c(Cl)c1Cl` (stereo not given), the EC50 is over 200 µM and the IC50 is 141 µM.

For `CC(=O)C1C(=O)C(=O)N(c2ccc(Cl)c(Cl)c2)C1=O` (stereo not given), the EC50 is over 200 µM and the IC50 is 129 µM. Take `CC1=NNC(=O)C1C1CC(c2c[nH]c3ccccc23)=NN(C(N)=O)C1=O` (stereo not given): the EC50 is over 200 µM and the IC50 was over 100 µM.

Take `O=C1SC(c2ccccc2)(c2ccccc2)c2ccccc21`: the EC50 was over 4.79 µM and the IC50 is over 4.79 µM.

Take `CSc1nc(SC)c(Nc2cccc(C)c2)c(SC)n1`: the EC50 was over 200 µM and the IC50 stood at 3.47 µM. With `Cn1c(=O)c(NC(=O)C(Cl)(Cl)Cl)nc2ccccc21`, the EC50 was over 93.3 µM and the IC50 was over 93.3 µM. For `Oc1ccccc1/C=C/c1csnn1`, the EC50 was over 178 µM and the IC50 was over 178 µM. Take `CC(=O)O[C@]12CCC[C@H]1C1(O)C(O)CCC[C@H]12` (stereo not given in full): the EC50 was over 200 µM and the IC50 was over 200 µM. With `COc1cc(CSc2ccc(O)cc2)cc(O)c1O`, the EC50 is over 126 µM and the IC50 was 22.9 µM. Take `S=C(Nc1ccc2c(c1)oc1ccccc12)c1cccs1`: the EC50 was over 200 µM and the IC50 is over 200 µM. Turning to `[O-][n+]1cc(SCc2ccccc2)ncc1SCc1ccccc1`, the EC50 is over 200 µM and the IC50 is over 200 µM. In the case of `COc1ccc2c(c1)C(N)=C(c1ccccc1)C2=O`, the EC50 is over 200 µM and the IC50 came to 75.9 µM. Regarding `CN1c2ccccc2C(=O)N2C(=O)CCC21C` (stereo not given), the EC50 is over 200 µM and the IC50 was over 200 µM. Take `CN(C)CCNCCCNc1c2ccccc2nc2cccc([N+](=O)[O-])c12`: the EC50 is over 2 µM and the IC50 was 0.0129 µM.

On to `COC1CC2CCC(C)[C@](O)(O2)C(=O)C(=O)N2CCCCC2C(=O)OC(C(C)CC2CCC(O)C(OC)C2)CC(=O)C(C)C=C(C)C(OC(=O)CN(C)C)C(OC)C(=O)C(C)CC(C)/C=C/C=C/C=C\1C` (stereo not given in full), for which the EC50 was over 200 µM and the IC50 amounted to 7.24 µM. Take `CC(C)(N=NC(C)(C)C1=NCCN1)C1=NCCN1`: the EC50 was over 200 µM; the IC50 is 105 µM and 83.2 µM. On to `COC(=O)C1(C)C=C(Nc2ccccc2)C(=O)N1c1ccccc1` (stereo not given), for which the EC50 was over 6.17 µM and the IC50 was over 6.17 µM. For `O=C(OCCO)C1CC2CC1C1(C2)OCCO1` (stereo not given), the outcome was inactive.

Regarding `O=[N+]([O-])c1cccnc1SSc1ncccc1[N+](=O)[O-]`, the EC50 is over 200 µM and the IC50 was found to be 97.7 µM.

Regarding `COc1cc(C)c(O)c(C/C=C(\C)CC2=C[C@@]3(C)CCC[C@@]3(C)[C@]3(C=CC(C)(C)O3)O2)c1`, the EC50 was over 40.7 µM and the IC50 is 11 µM. With `COC(=O)c1cc(C(c2cc(C)c(O)c(C(=O)OC)c2)c2cc(C)c(O)c(C(=O)OC)c2)cc(C)c1O`, the result was inactive. On to `O=C(O)CCC(=O)OCCNCCOC(=O)CCC(=O)O`, for which the result was inactive. Take `CC(C)=CCC[C@@H](C)[C@H]1CC[C@@]2(C)[C@@H]3CC[C@H]4C(C)(C)[C@@H](O)CC[C@@]45C[C@@]35CC[C@]12C`: the EC50 was over 200 µM and the IC50 was determined as 126 µM. The corresponding values for `Cc1cc(S(=O)(=O)n2cc[nH]c2=O)c(S)cc1Cl` are over 200 µM and over 200 µM.

As to `O=C(CC1C(=O)Nc2ccccc2S1=O)Nc1cc(Cl)ccc1Cl` (stereo not given), the EC50 was over 3.8 µM and the IC50 was over 3.8 µM. Regarding `OC(C#CCN1CCCC1)(c1ccccc1)c1ccccc1Cl` (stereo not given), the EC50 was over 200 µM and the IC50 worked out at 70.8 µM.

For the origin of these results see PubChem BioAssay AID179 (DTP/NCI, 2004).
